Converted amounts (≈) assume the structure as drawn.
How the values were obtained:
[1] = tested on: Malassezia sympodialis ATCC 42132; experiment: Mid-log assay (compound added at half-maximum OD580); type: cell-based, Malassezia sympodialis (former M. furfur); details: Example 7; for inhibition at 12.5 µg/mL: Malassezia sympodialis, ATCC42132, read-out: Mid-log Assay %-inhibition compared to benchmark
Protocol: Cells are cultivated to half-maximal OD580 before test compounds are added (arrow). Value of OD580 at time of sample application is set 100%. […] Blue diamonds, untreated control cells; pink rectangles, cells treated with test compounds.
(§1) General Assay Conditions • 1. Strain: Malassezia sympodialis ATCC 42132 • 2. Growth conditions: • Sabouraud-medium supplemented with dextrose (20 g/l), Tween 80 (1%) and glycerol-monostearat (emulsifier; 0.05%). Static incubation in flat-bottom 96-well microtiterplates (total volume 340 μl, working volume 200 μl; surface area 148 mm2). Incubation at 33° C. in humid atmosphere (wet-box) to avoid dessication. Incubation periods vary according to the assay format. Suspensions used for inoculation were adjusted to an optical density (OD580) of 0.1 • 3. […] Controls • Sterile media was used as negative control; cells cultivated in absence of any test compound but in presence of equal amounts of DMSO compared to samples (see below) were regarded as positive control (unrestricted growth) • 5. All compounds (test-samples and references) are dissolved in DMSO. […] Unless otherwise stated, test compound concentration was 12.5 μg/ml
For the so called “mid-log assay”, cells are grown to half-maximum optical density before test compounds are added. […] Numbers for OD580 of untreated control samples and samples treated with test compounds are compared to t0-value, which is defined as the 100% level. The value for OD580 of the untreated control sample in stationary phase (end of experiment) is defined as the “control-level” (for unrestricted growth). Values for control-levels are solely dependent on t0-values and therefore vary with each experiment; thus, they cannot be standardised.
Exponentially growing cells (mid-log) are in a defined active state with respect to proliferation and metabolic activity. […] Moreover, the mode of inhibition caused by the test compound can be determined (see above).

[2] = tested on: Malassezia sympodialis ATCC 42132; experiment: Classic assay for susceptibility testing of planktonically growing cells (OD580); type: cell-based, Malassezia sympodialis (former M. furfur); details: for inhibition at 12.5 µg/mL: read-out: Classic Assay, planktonic growth, inhibition
Protocol: Routine cultivation of M. sympodialis: M. sympodialis (former M. furfur) CBS 1878 was obtained from the Centraalbureau voor Schimmelcultures Fungal Biodiversity Centre. It was routinely grown on Dixon-agar plates in a humid atmosphere (“wet box”) at 33° C., or in Sabouraud-Maltose (SM) broth complemented with Tween80 and Glycerin-monostearate for liquid cultures in shake-flasks (300 ml operated with 50 ml medium) with agitation (150 rpm).
as §1
Routine susceptibility testing of M. sympodialis in high throughput format was done by simultaneous addition of test compounds and inoculum. Seven days after inoculation and when planktonic growth of the untreated control ceased, the effect of the test compounds was evaluated by comparison of the turbidity (optical density, OD580) of treated and untreated samples (control; 100%).
The classic assay is the platform to determine dose-response relationships, where serial dilutions of compounds are evaluated. For description of these relationships, values for the minimal effective concentration and the concentration effective in reducing cell proliferation by 50% (IC50) are generated.

[3] = 12.5 μg/ml unless otherwise stated
[4] = Malassezia sympodialis, ATCC42132, Example 7, 12.5 μg/ml unless otherwise stated

For Zinc Pyrithione, the “Mid-log Assay %-inhibition compared to benchmark” value [1, 3] was 16%, the “Classic Assay, planktonic growth, inhibition” value ([2]; Example 7, 12.5 μg/ml unless otherwise stated) was 73% inhibition and the “IC50 (concentration reducing cell proliferation by 50%), planktonic growth” value ([2]; serial dilutions, classic assay) was 12.4 µg/mL.
For `C=CC(OC(C)=O)c1ccc(OC(C)=O)cc1` (stereo not drawn) [1-acetoxychavicol, 1-acetoxychavicol acetate], the “Mid-log Assay Level-%” value ([1]; OD580 at addition = 100%, Control-level 399) was 379%, the inhibition at 12.5 µg/mL [1, 3] was 11% and the inhibition at 12.5 µg/mL [2, 4] was 61%.
`CC(C)(C)C(=O)C(Oc1ccc(Cl)cc1)n1ccnc1` (stereo not drawn) [Crinipan, climbazole] was tested, and the inhibition at 12.5 µg/mL [1, 3] was 66%, the inhibition at 12.5 µg/mL [2, 4] was 93% and the IC50 ([2]; Malassezia sympodialis, ATCC42132, serial dilutions, classic assay, read-out: IC50 (concentration reducing cell proliferation by 50%), planktonic growth) was 0.2 µg/mL (≈ 0.683 µM).

— patent publication US20150231045A1, “ANTI-DANDRUFF COMPOSITION COMPRISING 1-ACETOXYCHAVICOL ACETATE” (AnalytiCon Discovery GmbH, priority 2012, published 2015)
